Measurements as given in the NIST ThermoML archive (doi:10.1016/j.jct.2008.10.007).

What was measured:
[1] = 298.15 K; 101 kPa; Liquid; Vibrating tube method
[2] = xn = mol fraction of the nth substance listed; conditions: 298.15 K, 101 kPa, Liquid, Vibrating tube method
[3] = excess molar enthalpy (molar enthalpy of mixing); xn = mol fraction of the nth substance listed; conditions: 298.15 K, 101 kPa, Liquid, Calvet calorimetry

CCCOC(=O)CCC [propyl butanoate]
Conditions	mass density [kg/m3]
[1]	867.9

CCCOC(=O)CCC [propyl butanoate] + ClCCCCCCl
Conditions	excess molar enthalpy [kcal/mol]	mass density [kg/m3]
[2], x1 = 0.0527	–	1081.35
[2], x1 = 0.1057	–	1067.82
[2], x1 = 0.1578	–	1054.69
[2], x1 = 0.2095	–	1041.82
[2], x1 = 0.2663	–	1027.99
[2], x1 = 0.3782	–	1001.4
[2], x1 = 0.4944	–	974.66
[2], x1 = 0.6144	–	947.96
[2], x1 = 0.7409	–	920.76
[2], x1 = 0.804	–	907.58
[2], x1 = 0.8678	–	894.43
[2], x1 = 0.9363	–	880.61
[2], x1 = 1	–	867.9
[3], x1 = 0.0559	-0.00311	–
[3], x1 = 0.1285	-0.0086	–
[3], x1 = 0.2091	-0.0167	–
[3], x1 = 0.2908	-0.0258	–
[3], x1 = 0.3699	-0.0351	–
[3], x1 = 0.4417	-0.0449	–
[3], x1 = 0.4998	-0.0504	–
[3], x1 = 0.553	-0.0526	–
[3], x1 = 0.5757	-0.0523	–
[3], x1 = 0.6397	-0.0497	–
[3], x1 = 0.71	-0.0445	–
[3], x1 = 0.7828	-0.0368	–
[3], x1 = 0.8561	-0.0265	–
[3], x1 = 0.9304	-0.0146	–

CCCOC(=O)CCC [propyl butanoate] + ClCCCCCl
Conditions	excess molar enthalpy [kcal/mol]	mass density [kg/m3]
[2], x1 = 0.1349	–	1087.88
[2], x1 = 0.1841	–	1072.12
[2], x1 = 0.233	–	1056.97
[2], x1 = 0.2856	–	1041.17
[2], x1 = 0.3405	–	1025.23
[2], x1 = 0.3956	–	1009.76
[2], x1 = 0.5129	–	978.41
[2], x1 = 0.6385	–	947.12
[2], x1 = 0.7731	–	915.88
[2], x1 = 0.8454	–	900
[2], x1 = 0.918	–	884.64
[2], x1 = 1	–	867.9
[3], x1 = 0.0503	-0.00454	–
[3], x1 = 0.1217	-0.0117	–
[3], x1 = 0.2009	-0.0203	–
[3], x1 = 0.2826	-0.0306	–
[3], x1 = 0.3602	-0.0416	–
[3], x1 = 0.4315	-0.0516	–
[3], x1 = 0.5579	-0.0629	–
[3], x1 = 0.6248	-0.0612	–
[3], x1 = 0.699	-0.0559	–
[3], x1 = 0.7829	-0.0457	–
[3], x1 = 0.8689	-0.0301	–
[3], x1 = 0.9389	-0.0158	–

CCCOC(=O)CCC [propyl butanoate] + ClCCCCl
Conditions	excess molar enthalpy [kcal/mol]	mass density [kg/m3]
[2], x1 = 0.0366	–	1161.49
[2], x1 = 0.0766	–	1143.1
[2], x1 = 0.1186	–	1124.61
[2], x1 = 0.1603	–	1107.03
[2], x1 = 0.2067	–	1088.41
[2], x1 = 0.2552	–	1069.83
[2], x1 = 0.3066	–	1051.21
[2], x1 = 0.3595	–	1032.94
[2], x1 = 0.4152	–	1014.72
[2], x1 = 0.5357	–	978.32
[2], x1 = 0.5999	–	960.48
[2], x1 = 0.6691	–	942.33
[2], x1 = 0.7439	–	923.8
[2], x1 = 0.8228	–	905.44
[2], x1 = 0.9064	–	887.12
[2], x1 = 1	–	867.9
[3], x1 = 0.0386	-0.00478	–
[3], x1 = 0.0938	-0.0127	–
[3], x1 = 0.159	-0.0229	–
[3], x1 = 0.2273	-0.0375	–
[3], x1 = 0.2973	-0.0507	–
[3], x1 = 0.3649	-0.0626	–
[3], x1 = 0.4253	-0.0712	–
[3], x1 = 0.5121	-0.081	–
[3], x1 = 0.5732	-0.0798	–
[3], x1 = 0.6582	-0.0753	–
[3], x1 = 0.748	-0.0652	–
[3], x1 = 0.8421	-0.0464	–
[3], x1 = 0.9299	-0.0234	–

CCCOC(=O)CCC [propyl butanoate] + ClCCCl
Conditions	excess molar enthalpy [kcal/mol]	mass density [kg/m3]
[2], x1 = 0.0329	–	1222.22
[2], x1 = 0.065	–	1200.67
[2], x1 = 0.1029	–	1176.79
[2], x1 = 0.1385	–	1155.7
[2], x1 = 0.1815	–	1132.09
[2], x1 = 0.2225	–	1110.75
[2], x1 = 0.2703	–	1087.77
[2], x1 = 0.3191	–	1065.93
[2], x1 = 0.3743	–	1043.05
[2], x1 = 0.4285	–	1022.26
[2], x1 = 0.4904	–	1000.19
[2], x1 = 0.556	–	978.67
[2], x1 = 0.628	–	956.91
[2], x1 = 0.7087	–	934.51
[2], x1 = 0.7989	–	911.8
[2], x1 = 0.8938	–	890.06
[2], x1 = 1	–	867.9
[3], x1 = 0.0365	-0.00837	–
[3], x1 = 0.0999	-0.0229	–
[3], x1 = 0.1556	-0.0363	–
[3], x1 = 0.2176	-0.0526	–
[3], x1 = 0.281	-0.0684	–
[3], x1 = 0.343	-0.0851	–
[3], x1 = 0.3848	-0.0951	–
[3], x1 = 0.4055	-0.098	–
[3], x1 = 0.4534	-0.106	–
[3], x1 = 0.5266	-0.109	–
[3], x1 = 0.6369	-0.0997	–
[3], x1 = 0.7616	-0.0746	–
[3], x1 = 0.8961	-0.0399	–

CCCOC(C)=O [propyl ethanoate]
Conditions	mass density [kg/m3]
[1]	882.08

CCCOC=O [propyl methanoate]
Conditions	mass density [kg/m3]
[1]	899.81

CCCOC=O [propyl methanoate] + ClCCCCCCCl
Conditions	excess molar enthalpy [kcal/mol]	mass density [kg/m3]
[2], x1 = 0.0861	–	1054
[2], x1 = 0.1676	–	1044.21
[2], x1 = 0.2459	–	1034.25
[2], x1 = 0.3157	–	1024.9
[2], x1 = 0.3867	–	1014.88
[2], x1 = 0.4515	–	1005.28
[2], x1 = 0.5124	–	995.82
[2], x1 = 0.6287	–	976.43
[2], x1 = 0.6818	–	966.95
[2], x1 = 0.7826	–	947.72
[2], x1 = 0.8311	–	937.83
[2], x1 = 0.8777	–	927.92
[2], x1 = 0.9609	–	909.1
[2], x1 = 1	–	899.81
[3], x1 = 0.0891	0.021	–
[3], x1 = 0.2066	0.0373	–
[3], x1 = 0.3241	0.049	–
[3], x1 = 0.4164	0.0523	–
[3], x1 = 0.4832	0.0504	–
[3], x1 = 0.5353	0.0473	–
[3], x1 = 0.5847	0.0433	–
[3], x1 = 0.6323	0.039	–
[3], x1 = 0.6975	0.0323	–
[3], x1 = 0.7658	0.0249	–
[3], x1 = 0.8389	0.0165	–
[3], x1 = 0.9059	0.00908	–
[3], x1 = 0.9621	0.00382	–
